Assay [1] in a line: Inhibition of SARS-CoV-2 RdRp transfected in HEK293T cells incubated for 24 hrs by […].
A short description of assay [2]: Inhibition of SARS-CoV-2 RdRp transfected in human A549 cells incubated for 24 hrs by […].

In the case of `Cc1cccc(C(=O)CSc2c[nH]c3ccccc23)c1`, the response in assay [1] was half-maximal at 2530 nM (EC50).

As for `O=C(CSc1c[nH]c2ccccc12)c1ccc(Cl)c(Cl)c1`, in assay [1], the half-maximal effective concentration (EC50) is 2750 nM.

Turning to `CCOc1cccc(CNC(=O)CSc2cn(C(=O)OC(C)(C)C)c3ccccc23)c1`, the EC50 in assay [2] is 1180 nM; in assay [1], 1410 nM.

Values taken from BindingDB's records for doi:10.1016/j.ejmech.2023.115292 (National Research Centre, 2023).
